Reference: patent publication US20200276181A1, “THIENOISOQUINOLINES AND THEIR DERIVATIVES FOR TARGETING TUBULIN, CH-TOG, AURORA A KINASE, TPX2, CDK5RAP2 AND/OR ASPM” (VALORBEC, SEC, priority 2017, published 2020)
pIC50: −log10 of the molar value. Each block holds one compound with its values, some of them ahead of it.

What was measured:
A549 cells [1] = assay: Spindle morphology, DAPI and tubulin staining; type: cell-based, human; details: 300 nM, 4 hours
Procedure: FIG. 1A) is a line graph showing changes in the percentage of viable HFF-1, HeLa, A549 and HCT 116 cells after treatment with a range of C75 concentrations for 3 population doubling times (N=3). […] FIG. 1C) is a line graph showing the percentage of HeLa and HFF1 cells in mitosis after treatment with various concentrations of C75 for 8 hours. The bars indicate standard deviation. FIG. 1D) is a series of images showing cells that were fixed and co-stained for tubulin (microtubules) and DAPI (DNA). […] The scale bar for the cells is 10 μm. […] FIG. 1F) is a cartoon schematic showing the key features of a metaphase cell.

Aurora A kinase = Aurora A kinase (Homo sapiens, UniProt O14965); details: in vitro; cited from earlier work
Chain of Aurora A kinase (O14965 whole entry): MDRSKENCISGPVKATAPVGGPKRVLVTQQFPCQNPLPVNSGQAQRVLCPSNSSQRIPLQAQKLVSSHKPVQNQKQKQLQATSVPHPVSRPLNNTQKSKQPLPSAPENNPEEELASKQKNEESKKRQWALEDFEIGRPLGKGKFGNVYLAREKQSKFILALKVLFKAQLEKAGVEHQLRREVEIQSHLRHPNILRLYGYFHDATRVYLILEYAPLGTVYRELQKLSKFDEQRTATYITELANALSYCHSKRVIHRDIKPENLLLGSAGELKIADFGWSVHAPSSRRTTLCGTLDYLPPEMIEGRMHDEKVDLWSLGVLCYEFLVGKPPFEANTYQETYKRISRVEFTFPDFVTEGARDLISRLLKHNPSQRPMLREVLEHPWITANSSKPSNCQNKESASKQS

A549 cells [2] = assay: IC50 of derivatives (Table 5); type: cell-based, human; details: Table 5, cell line only named in b213 (A549)
HeLa cells = assay: Viability IC50, high-throughput automated analysis (Table 4); type: cell-based; details: Homo sapiens, 3 population doubling times
Procedure: (§1) FIG. 1A) is a line graph showing changes in the percentage of viable HFF-1, HeLa, A549 and HCT 116 cells after treatment with a range of C75 concentrations for 3 population doubling times (N=3). […] There were more rounded mitotic cells after C75 treatment in comparison to the control. FIG. 1C) is a line graph showing the percentage of HeLa and HFF1 cells in mitosis after treatment with various concentrations of C75 for 8 hours. The bars indicate standard deviation. FIG. 1D) is a series of images showing cells that were fixed and co-stained for tubulin (microtubules) and DAPI (DNA). Treatment of HeLa cells with 300 nM C75 caused the mitotic spindles to be disorganized, while they were not affected in HFF1 cells. […] The scale bar for the cells is 10 μm. […] FIG. 1F) is a cartoon schematic showing the key features of a metaphase cell.
(§2) The images in FIG. 1B) show fields of view of HeLa cells treated with (dimethyl sulfoxide) DMSO or 500 nM of C75. […] Higher concentrations of C75 caused spindle phenotypes in HFF1 cells, but they were quite different in comparison to HeLa cells (FIG. 1D).

A549 cells [3] = assay: as above; type: cell-based; details: Homo sapiens, 3 population doubling times
Procedure: as §1, §2

HCT 116 cells = assay: as above; type: cell-based; details: Homo sapiens, 3 population doubling times
Procedure: as §1, §2

HFF-1 cells = assay: as above; type: cell-based; details: Homo sapiens, 3 population doubling times
Procedure: as §1, §2

[4] = system: HeLa (cervical adenocarcinoma) cells; assay: Cell viability IC50 (Table 3); type: cell-based, human
Procedure: (§3) To date, 30 variants with different structural modifications have been made. […] In particular, it is shown that C75 causes death in multiple cancer cells with IC50 values in the 100-400 nM range, including breast cancers (MCF7, BT549), lung cancer (A549), colorectal cancer (HCT116) in addition to HeLa cells (cervical cancer).

[5] = system: MCF-7 (mammary gland carcinoma) cells; assay: Cell viability IC50 (Table 3); type: cell-based, human; details: MCF-7 cells
Procedure: as §3

[6] = system: MCF7, BT549, A549, HCT116, HeLa cells; assay: Viability in cancer vs non-cancer cell lines, summary of Table 3; type: cell-based, human
Procedure: as §3

[7] = system: BT549 (breast ductal carcinoma) cells; assay: Cell viability IC50 (Table 3); type: cell-based, human
Procedure: as §3

[8] = system: HFF1 (fibroblast) non-cancer cells; assay: Cell viability IC50 (Table 3); type: cell-based; details: HFF-1 non-cancer cells
Procedure: as §3

[9] = system: HeLa cells with lower levels of endogenous MCAK (MCAK RNAi); assay: Spindle phenotypes with MCAK RNAi; type: cell-based, human; details: 300 nM C75 or 30 nM colchicine
Text: FIG. 8B) is a bar graph showing the proportion of spindle phenotypes in HeLa cells treated as in 8A).
Since this is unique to C75, and ch-TOG RNAi was previously shown to be suppressed (partially) by MCAK RNAi, supporting C75's role in targeting ch-TOG or a component of the pathway.

[10] = system: HeLa cells with lower levels of endogenous ch-TOG (ch-TOG RNAi); assay: Spindle phenotypes with ch-TOG RNAi; type: cell-based, human; details: 200 nM C75 or 20 nM colchicine
Text: FIG. 7B) is a bar graph showing the proportion of phenotypes of the HeLa cells observed in the different conditions listed in 7A) (bipolar spindles in light grey; bipolar spindles with misaligned chromosomes in dark grey; multipolar/fragmented spindles in hatched lines; monopolar spindles in black).

HeLa cells in metaphase = assay: Short treatment and washout, spindle recovery; type: cell-based, human; details: 5 minutes treatment, washout, imaged after 40 minutes
Text: For each condition, 20,000 cells were counted per replicate (N=3). Line graphs (right) were made to better illustrate the relative changes in the cell cycle phases for the different treatments. Bars show standard deviation. The asterisks indicate the first statistically significant change in the G0/G1 and G2/M populations determined by a two-way ANOVA with a post-hoc Tukey's multiple comparisons test using 95% confidence intervals. FIG. 2B) is a line graph showing the percentage of HCT116 (p53−/−) cells, A549 cells, HeLa cells and H1299 cells in mitosis after treatment with various concentrations of C75 for one population doubling time. All of the cell lines show an increase in the proportion of mitotic cells after treatment with 200 nM C75. The bars indicate standard deviation. […]
C75 was also tested for efficacy in different cancer cell lines. […] To further assess the role of C75 in disrupting spindles, HeLa cells were treated with 300 nM C75 for 4 hours and the spindle phenotypes were analyzed in more detail (FIG. 2E). […] To assess the affect of C75 on centrosomes, HeLa cells were treated with C75 or nocodazole (a drug that causes microtubule depolymerization as a control) for a short period of time (5 minutes), then the drugs were removed and the cells were analyzed for spindle phenotypes (schematic in FIG. 2G). […]

[11] = biological target: Purified free alpha and beta tubulin dimers (Homo sapiens, UniProt P07437+Q71U36); details: comparison drugs; cited from earlier work

SMILES: COc1cc(Nc2ncc3c(n2)-c2ccc(Cl)cc2C(c2c(F)cccc2OC)=NC3)ccc1C(=O)O [Alisertib, reference compound]
spindle phenotype (A549 cells [1]): mitotic arrest and spindle phenotypes similar to what was observed for C75
affinity for Aurora A kinase (Aurora A kinase): ~1 nM

pIC50 (A549 cells [2]; Homo sapiens): < 6.00
pIC50 (HeLa cells): < 6.00
pIC50 (A549 cells [3]): < 6.00
pIC50 (HCT 116 cells): < 6.00
SMILES: O=S(=O)(c1cccs1)N1Cc2ccccc2-c2sccc21 [Compound C87]
pIC50 (HFF-1 cells): < 6.00

pIC50 (A549 cells [2]): 6.11
pIC50 [4]: 6.75
pIC50 [5]: 6.83
SMILES: COc1ccc(S(=O)(=O)N2Cc3ccccc3-c3sccc32)cc1 [Compound C90]

pIC50 (A549 cells [2]): 6.36
pIC50 [4]: 7.15
pIC50 [5]: 7.07
pIC50 [7]: 6.75
SMILES: COc1ccc(S(=O)(=O)N2Cc3ccccc3-c3sc(I)cc32)cc1 [Compound C207]
efficacy (effect on viability) in cancer cells vs. non-cancer cells [6]: higher efficacy
pIC50 [8]: 6.82

SMILES: COc1cc2c(c(OC)c1OC)-c1ccc(OC)c(=O)cc1[C@@H](NC(C)=O)CC2 [colchicine, reference compound]
suppression of fragmented spindle phenotype by MCAK RNAi [9]: not
interaction with ch-TOG RNAi, fragmented spindle phenotype [10]: synergistic

SMILES: COC(=O)Nc1nc2ccc(C(=O)c3cccs3)cc2[nH]1 [nocodazole, reference compound]
spindles reformed after drug removal (HeLa cells in metaphase): bipolar spindles reformed

SMILES: CC[C@]1(O)C[C@@H]2CN(CCc3c([nH]c4ccccc34)[C@@](C(=O)OC)(c3cc4c(cc3OC)N(C)[C@H]3[C@@](O)(C(=O)OC)[C@H](OC(C)=O)[C@]5(CC)C=CCN6CC[C@]43[C@@H]65)C2)C1 [vinblastine]
concentration causing a similar decrease of polymerization [11]: ~5 µM
